One assay concerns Cyld−/− mice. Nature of the assay: Survival of Cyld−/− mice inoculated with S. pneumoniae after pretreatment. It is filed as in vivo, mouse. The settings on record: SB203580 10 mg/kg intraperitoneally 2 hours before S. pneumoniae inoculation. The protocol: For S. pneumoniae-induced lethal infections in wild type, Cyld^−/−, Mkk3^−/−, and PAI-1^−/− mice, anaesthetized mice were intratracheally inoculated with live S. pneumoniae, S. pneumoniae wild type or pneumolysin mutant lysate, or pneumolysin (“PLY”), at a concentration of 5×10^7CFU per mouse for live bacteria and bacterial lysate and 200 ng/mouse for PLY in all experiments unless otherwise indicated, and saline was inoculated as control. The mice were monitored for lethality every 2 hours for the first 12 hours and every 12 hours for 5 days thereafter. To assess the effect of perturbing p38 MAPK signaling on S. pneumoniae-induced lethality in Cyld^−/− mice, Cyld^−/− mice were pretreated with the p38 inhibitor SB203580 (10 mg/kg, intraperitoneally in Cyld^−/− mice) 2 hours before S. pneumoniae inoculation, and mice were then intratracheally inoculated with S. pneumoniae. To determine the effect of administration of exogenous PAI-1 on S. pneumoniae-induced lethality, mice were intratracheally administered with mouse rPAI-1 (12.5 μg/mouse) or saline as control, followed by S. pneumoniae and PLY inoculation 1 day after PAI-1 administration. For PAI-1 neutralization in Cyld^−/− mice, Cyld^−/− mice were intraperitoneally injected with α-PAI-1 mAb (25 μg/mouse for histological analysis and 50 μg/mouse for lethality) 2 hours before S. pneumoniae inoculation. Mouse IgG was used as control. […] Lung tissues were then subjected to histological analysis and total mRNA and protein extraction. In all Examples, saline was used as a control unless otherwise specified.
To assess the effect of perturbing NF-κB signaling on S.p.-induced lethality in Cyld^−/− mice, Cyld^−/− mice were pretreated with the IKK inhibitor Wedelolactone (10 mg/kg, intraperitoneally) 2 hours before S.p. inoculation, and mice were then intratracheally inoculated with S.p.
Differences in survival between wild-type, Cyld-deficient (“Cyld^−/−”), Mkk3-deficient (“Mkk3^−/−”), and PAI/−/−deficient (“PAI-1^−/−”) mice after saline, S. pneumoniae, S. pneumoniae lysate, and/or pneumolysin inoculation with or without SB203580, rPAI-1, or α-PAI-1 mAb were determined by Kaplan-Meier analysis. All tests were performed using SPSS14.0 software (SPSS Inc.). All in vivo survival rate data were evaluated by Log Lank test. All other in vivo and in vitro data were evaluated by Student t-test. Statistical significance was accepted at a value of p<0.05.

A further assay deals with PAI-1. The assay can be described thus: PAI-1 mRNA expression in A549 cells (Q-PCR). It is filed as cell-based, human. To be noted: SB203580 pretreatment (1 μM, 2 hours). The protocol:
Cells were cultured on 12-well plates and transfected with various expression plasmids, as described in Examples 1-15 and the Brief Description of the Drawings. All transient transfections were carried out in triplicate using TransIT-LT1 reagent (Minis) following the manufacturer's instructions. […] Transfected cells were pretreated with or without chemical inhibitors including SB203580 (1 μM) for 2 hours. S.p. or pneumolysin was then added to the transfected cells 42 hours after transfection. After 5 hours, the cells were harvested for either RNA extraction and real-time quantitative PCR analysis as described in the Examples or luciferase assay. […]
Total RNA was isolated with TRIzol reagent (Invitrogen) by following the manufacturer's instructions. Real-Time Quantitative RT-PCR analysis of PAI-1 and CYLD were performed as described in Jono et al., “NF-κB Is Essential for Induction of CYLD, the Negative Regulator of NF-κB: Evidence for a Novel Inducible Autoregulatory Feedback Pathway,” J. Biol. Chem. 279:36171-4 (2004), which is hereby incorporated by reference in its entirety. […] Relative quantity of PAI-1 mRNA was obtained using comparative CT Method and was normalized by Cyclophilin and GAPDH as an endogenous control for human and mouse, respectively (Applied Biosystems).

The values that follow come from patent US8716237B2, “Methods for the treatment or prevention of hemorrhagic conditions” (University of Rochester, priority 2007, dated 2014).

Consider `C[S+]([O-])c1ccc(-c2nc(-c3ccncc3)c(-c3ccc(F)cc3)[nH]2)cc1` (stereo not shown) [SB203580], for which, in the assay with Cyld−/− mice, the “inoculated mice died within 48 hours” value is reported as “approximately 80%”, the survival is listed as 20% and the “time after inoculation at which mice started to die” value came out at 12 h. For the same compound, in the assay on PAI-1, the “S. pneumoniae-induced PAI-1 expression” value was “greatly reduced S. pneumoniae-induced PAI-1 expression”.
